# Target: BACE1 (Homo sapiens, UniProt P56817)
# Assay: BACE1 FRET assay
# Assay type: biochemical
# Chain of BACE1 (P56817 46-501): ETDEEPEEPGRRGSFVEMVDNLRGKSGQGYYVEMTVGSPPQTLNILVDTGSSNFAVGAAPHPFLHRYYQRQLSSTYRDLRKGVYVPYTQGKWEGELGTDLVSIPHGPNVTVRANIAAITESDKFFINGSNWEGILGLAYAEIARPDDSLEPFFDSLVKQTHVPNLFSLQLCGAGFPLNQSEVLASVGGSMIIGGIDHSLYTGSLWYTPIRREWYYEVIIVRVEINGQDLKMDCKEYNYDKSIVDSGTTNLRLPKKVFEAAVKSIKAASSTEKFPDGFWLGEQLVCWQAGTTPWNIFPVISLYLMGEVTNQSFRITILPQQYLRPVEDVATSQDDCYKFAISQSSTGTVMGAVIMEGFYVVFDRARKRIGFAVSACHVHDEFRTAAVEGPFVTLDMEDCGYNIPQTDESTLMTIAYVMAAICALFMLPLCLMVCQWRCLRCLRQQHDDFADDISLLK
smiles,measurement,value
"COc1cc(OC)c2c(O)c3c(=O)cc(C)oc3c(-c3c(O)cc4cc(O)c5c(=O)cc(C)oc5c4c3OC)c2c1 [Compound 7, asperpyrone A]",IC50,36.5 µM
"COc1cc(OC)c2c(O)c3c(=O)cc(C)oc3c(-c3c(OC)cc4cc(O)c5c(=O)cc(C)oc5c4c3OC)c2c1 [Compound 4, fonsecinone A]",IC50,14.9 µM
